Source: patent US8728439B2, “System and method for indirectly measuring calcium ion efflux” (Celtrast LLC, priority 2008, dated 2014)

Columns and labels:
[1] = Absolute Mn content in heart tissue by ICP-MS; type: in vivo, C57Bl/6 mice; conditions: 50 mg/kg SEA0400; approximately 6 hours post-MnCl2
Procedure: As previously stated, all mice were anesthetized during the experimental procedures: contrast agent infusion, drug administration, and imaging sessions. The mice were allowed to recover between procedures so as to […] the time each mouse was under anesthesia to 2.5 hours, which was then followed by a recovery period of at least 2.5 hours. This protocol minimized any physiological effects caused by the anesthesia; imaging time points selected for each mouse followed these guidelines. In addition, efforts were made to alter the time interval between successive data points so as not to bias the results with potential anesthesia effects. […] A subgroup of randomly selected animals (n=16) was sacrificed immediately after imaging to measure absolute Mn content in heart tissue (n=14) and blood samples (n=6) by inductively coupled plasma-mass spectrometry (ICP-MS) analysis ([…] Ltd., North Vancouver, BC, Canada). The samples were harvested approximately one hour after the initiation of the final T1-map. This time delay was due to the length of time required to acquire the T1-map, and the time required to harvest the samples, and remained constant for all of the samples. […] No statistically significant differences between the groups were found following linear least-square fitting to the data. […]

[2] = Heart rate post-MnCl2 infusion
Procedure: MEMRI experiments were performed in 62 healthy adult male C57Bl/6 mice (6-14 weeks old, 24.0±1.9 g) following the guidelines of the Institutional Animal Care and Use Committee at the Medical College of Georgia, Augusta, Ga., USA. For all experimental procedures, the animals were anesthetized with a mixture of medical air, oxygen (1:1) and 2.5-3.0% isoflurane. The heart rate (HR) was maintained at 436±42 beats per minute (bpm) throughout the experiment by carefully adjusting the level of isoflurane. A custom-made water bed set at 38° C. maintained a constant animal body temperature in the cradle throughout the MEMRI procedure.
MEMRI data were acquired on a 7.0-T 20-cm horizontal bore Bruker BioSpec MRI spectrometer (Bruker Instruments, Billerica, Mass., USA) equipped with a micro-imaging gradient insert (950 mT/m). […] A standard Bruker volume coil (35 mm inner diameter) was used to transmit and receive at ^1H frequency (300 MHz). Electrocardiographic (ECG) and respiratory signals were monitored by a physiological monitoring system (SA Instruments, INC., Stony Brook, N.Y.) with the ECG signal used to gate the images. All images were gated from the ECG R-wave acquired during end-diastole. Short axis images were acquired midway through the left ventricle and perpendicular to the long axis of the heart. A T1-weighted MRI Gradient Echo Flow Compensation (GEFC) pulse sequence was used for slice localization with the imaging parameters as follows: matrix=128×128; TE=3.5 ms; TR=35 ms; slice thickness=1.0 mm; FOV=3.0×3.0 cm; flip angle=60° and NA=6. TR was purposely set at a time shorter than the R-R period (138±1.5 ms) detected on the ECG. Therefore, the true repetition time for the imaging sequence was the R-R period.

NCX = biological target: T1, NCX (Mus musculus, UniProt P70414); test: MEMRI T1-mapping of LV Wall ΔR1 washout (Mn2+ efflux) after MnCl2 infusion, with or without NCX inhibitor; type: in vivo, C57Bl/6 mice; conditions: for average LV Wall ΔR1: 4.9-5.9 hours post-MnCl2 infusion; for ΔR1,0 (extrapolated ΔR1 at the time of MnCl2 infusion): fit t>=1 hour
T1 construct: from tissue; host or cells: myocardium (left ventricular free wall) of living C57Bl/6 mice

Q: Which “absolute cardiac Mn concentration” value [1] does the source give for CCOc1ccc(Oc2ccc(OCc3cc(F)ccc3F)cc2)c(N)c1 [SEA0400] here?
A: The value was 27.1 µg/g.

Q: And the “average post-MnCl2 infusion heart rate” value ([2]; 20 mg/kg SEA0400)?
A: The value was 449±30 bpm.

Q: And the “average post-MnCl2 infusion heart rate” value ([2]; 50 mg/kg SEA0400)?
A: Its value is 443±28 bpm.

Q: What about the “difference in heart rate between the experimental groups” value ([2]; control, 20 mg/kg and 50 mg/kg SEA0400, p=0.08) of the same compound?
A: Its value is “No significant differences in HR”.

Q: And the “average LV Wall ΔR1” value (NCX; 20 mg/kg SEA0400)?
A: Its value is 1.72 ± 0.24 s⁻¹.

Q: And the “half-life versus control group (extra sum-of-squares F test)” value (NCX; 20 mg/kg SEA0400, p=0.54)?
A: The value was “not statistically different from the control group”.

Q: What about the “ΔR1,0 (extrapolated ΔR1 at the time of MnCl2 infusion)” value (NCX; 20 mg/kg SEA0400 i.p. one hour post-MnCl2) of the same compound?
A: The value was 4.8 ± 0.2 s⁻¹.

Q: What about the “average LV Wall ΔR1” value (NCX; 50 mg/kg SEA0400) of the same compound?
A: Its value is 2.46 ± 0.29 s⁻¹.

Q: And the “half-life versus control group (extra sum-of-squares F test)” value (NCX; 50 mg/kg SEA0400, p=0.006)?
A: The value was “significantly different from the control group”.

Q: What about the “ΔR1,0 (extrapolated ΔR1 at the time of MnCl2 infusion)” value (NCX; 50 mg/kg SEA0400 i.p. one hour post-MnCl2) of the same compound?
A: Its value is 4.3 ± 0.4 s⁻¹.
